Measured values published in PubChem BioAssay (NCI).
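Exposure lasted 48 hours, with cells grown in 96-well plates and compounds tested at five concentrations. TGI is the concentration that stops growth completely.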 *1 amine or outer side, *2 acyl side, *3 side chain or, on linkers, in order; H or OH if unused. Where a SMILES comes first, the peptide text is derived from it. The star is where a group is joined. γGlu = O=C(O)[CH](CCC(=O)[*:2])N[*:1]; NHOH = ON*

Assays:
Assay in all cases: NCI-60 cell line screen, 48 h
[1] = test system: PC-3 prostate
[2] = test system: SNB-19 CNS
[3] = test system: K-562 leukemia
[4] = test system: NCI-H226 lung
[5] = test system: M14 melanoma
[6] = test system: HOP-62 NSCLC
[7] = test system: ACHN renal
[8] = test system: HS 578T breast
[9] = test system: SF-539 CNS
[10] = test system: SK-OV-3 ovarian
[11] = test system: RPMI-8226 leukemia
[12] = test system: DU-145 prostate
[13] = test system: SF-268 CNS
[14] = test system: KM12 colon
[15] = test system: SR leukemia

Structure (SMILES) | TGI [1] [µM] | TGI [2] [µM] | TGI [3] [µM] | TGI [4] [µM] | TGI [5] [µM] | TGI [6] [µM] | TGI [7] [µM] | TGI [8] [µM] | TGI [9] [µM] | TGI [10] [µM] | TGI [11] [µM] | TGI [12] [µM] | TGI [13] [µM] | TGI [14] [µM] | TGI [15] [µM]
c1ccc(C/C(=N\Nc2nc3ccccc3[nH]2)c2ccccn2)cc1 | 0.503 | 17.9 | > 100 | 0.295 | 0.915 | 12.6 | 3.06 | 20 | 0.741 | 0.413 | 0.131 | 27.7 | 12 | 15.4 | 
O=[N+]([O-])C(/C(Cl)=C(/Cl)N1CCOCC1)=C1\Nc2ccccc2O1 | > 100 | > 100 | > 100 | > 100 | > 100 | > 100 | > 100 | > 100 | > 100 | > 100 | > 100 | > 100 | > 100 | > 100 | 
COc1cc(/C=C2\CC3C4CC=C5C[C@@H](O)CC[C@]5(C)C4CC[C@]3(C)\C2=N\O)cc(OC)c1OC (some centres not stated) | 37.8 | > 100 | > 100 | 60.9 | 27.6 | > 100 | 17.6 | > 100 | 34.7 | > 100 | 40 | > 100 | > 100 | 23.5 | 
COC(=O)C12C(=O)CC3CCC1C32C(=O)OC (configuration not stated) | > 100 | > 100 | > 100 | > 100 | > 100 | > 100 | > 100 |  | > 100 | > 100 | > 100 | > 100 | > 100 | > 100 | > 100
Cc1c2ccccc2c(/C=N/NC(=O)CSCC(=O)N/N=C/c2c3ccccc3c(C)c3ccccc23)c2ccccc12 | > 67.5 | > 100 | > 100 | > 61.1 | > 100 | 36.1 | > 89 | > 100 | > 56.9 | > 100 | 51.9 | > 100 | > 75.3 | > 100 | 
CC(Nc1cccc(Cl)c1)c1ccncc1 (configuration not stated) | > 100 | > 100 | > 100 | > 100 | > 100 | > 100 | > 100 | > 100 | > 100 | > 100 | > 100 | > 100 | > 100 | > 100 | 
CN(C(=O)Cc1cc(Cl)c(Cl)cc1NC(=O)CCCN)[C@H]1CCCC[C@@H]1N1CCCC1 | > 100 | 45.4 | > 100 | > 100 | 34 | > 100 | > 100 |  |  | > 100 | > 100 | > 100 | 30.6 | 36.7 | > 100
Cc1cc(C)c2c(-c3ccccc3)cc(=O)[nH]c2c1 | > 100 |  | > 100 | > 100 | > 100 | > 100 | > 100 | > 100 |  | > 100 | > 100 | > 100 | > 100 | > 100 | 
CC1=NN(c2ccccc2)C(=O)/C1=C1\SC(c2ccccc2)(c2ccccc2)c2ccccc21 | > 100 | > 100 | > 100 | > 100 | > 100 | > 100 | > 100 | > 100 | > 100 | > 100 | > 100 | > 100 | > 100 | > 100 | 
Cc1cccc(C)c1NC(=S)N/C=C(\C#N)C(N)=O | > 100 | > 100 | > 100 | > 100 | > 100 | > 100 | > 100 | > 100 | > 100 | > 100 | > 100 | > 100 | > 100 | > 100 | 
CN(C)CC1CCC/C(=C\c2ccc(Cl)c(Cl)c2)C1=O (configuration not stated) | > 33.5 | 22.4 | 5.47 | 24.5 | 11.2 | 26.8 | 15.1 | 9.51 | 12.5 | 20.3 | 1.03 | 23 | 8.88 | 4.04 | 
COc1cc(O)c2c(=O)c3cccc(C)c3[nH]c2c1 | > 10 | > 10 | > 10 | > 10 | > 10 | > 10 | > 10 | > 10 | > 10 | > 10 | > 10 | > 10 | > 10 | > 10 | 
NC(=O)N/N=C(\Cc1cc(=O)oc2cc(O)ccc12)C(=O)Nc1ccccc1C(N)=O | > 100 | > 100 |  | > 100 | > 100 | > 100 | > 100 | > 100 | > 100 | > 100 |  | > 100 | > 100 | > 100 | 
CCOC(=O)CCCN | > 100 | > 100 | > 100 | > 100 | > 100 | > 100 | > 100 | > 100 |  | > 100 | > 100 | > 100 | > 100 | > 100 | 
NC(CCC(=O)NC(CCC(=O)NO)C(=O)NCC(=O)O)C(=O)O (configuration not stated) (γGlu-Glu(NHOH)-Gly-OH; configuration not given here) | > 100 | > 100 | > 100 | > 100 | > 100 | > 100 | > 100 |  | > 100 | > 100 | > 100 | > 100 | > 100 | > 100 | 
O=C(Nc1ccc(Cl)cc1)c1cc(S(=O)(=O)Nc2nc3ncccc3[nH]2)c(SSc2cc(Cl)c(C(=O)Nc3ccc(Cl)cc3)cc2S(=O)(=O)Nc2nc3ncccc3[nH]2)cc1Cl | > 100 | > 100 | > 100 | > 100 | > 100 | > 100 | > 100 | > 100 | > 100 | > 100 | > 100 | > 100 | > 100 | > 100 | 
